Data taken from patent publication US11566007B2, “Ras inhibitors” (Revolution Medicines, Inc., priority 2019, dated 2023).

How the values were obtained:
[1] = target: K-Ras G12C (Homo sapiens (Human), UniProt P01116+P62937, G12C); test: Ras-Raf (BRAF RBD) disruption / FRET / MOA assay, KRAS G12C; assay type: biochemical; details: KRAS G12C; Ras-Raf disruption/FRET/MOA assay; read-out: IC50* KRAS G12C FRET data
In short: (§1)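 Ras:RAF disruption was scored as a fall in TR-FRET ratio relative to DMSO. Compound ranged in 3-fold steps over 10 points from 30 μM final; incubation ran 3 h at 25° C, detection antibodies a further 1.5 h. Reported as IC50.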

[2] = target: KRAS G12D (Homo sapiens (Human), UniProt P01116+P62937, G12D); test: Ras-Raf (BRAF RBD) disruption / FRET / MOA assay, KRAS G12D; assay type: biochemical; details: Ras-Raf disruption/FRET/MOA assay; class symbols; read-out: KRAS G12D FRET data IC50
In short: as §1

[3] = target: NRAS G12C (Homo sapiens (Human), UniProt P01111+P62937, G12C); test: Ras-Raf (BRAF RBD) disruption / FRET / MOA assay, NRAS G12C; assay type: biochemical; details: read-out: IC50* NRAS G12C FRET data
In short: as §1

[4] = target: NRAS WT (Homo sapiens (Human), UniProt P01111+P62937); test: Ras-Raf (BRAF RBD) disruption / FRET / MOA assay, NRAS WT; assay type: biochemical; details: read-out: IC50* NRAS WT FRET data
In short: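 TR-FRET disruption of nucleotide-loaded Ras binding to BRAF RBD via compound-driven ternary complex with cyclophilin A. Compound as 10-point 3-fold series from 30 μM final, 3 h at 25° C, then anti-His Eu-W1024 (10 nM) and anti-GST allophycocyanin (50 nM) for 1.5 h. IC50 from decreased FRET ratio versus DMSO.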

[5] = system: NCI-H358 cells (K-Ras G12C); test: Potency assay: pERK in NCI-H358 cells; assay type: cell-based, human; details: Homo sapiens, NCI-H358; H358 KRAS G12C; read-out: pERK EC50
In short: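 4 h cpd, 37 °C; 10-pt 3-fold series, 10 mM DMSO top stock, duplicates. Readout pERK: AlphaLISA SureFire Ultra or In-Cell Western (IR-800CW secondary, DRAQ5 DNA stain). IC50, 4-PL fit vs log conc.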

[6] = target: KRAS G12V (Homo sapiens (Human), UniProt P01116+P62937, G12V); test: Ras-Raf (BRAF RBD) disruption / FRET / MOA assay, KRAS G12V; assay type: biochemical; details: read-out: IC50* KRAS G12V FRET data
In short: as §1

[7] = target: KRAS G13D (Homo sapiens (Human), UniProt P01116+P62937, G13D); test: Ras-Raf (BRAF RBD) disruption / FRET / MOA assay, KRAS G13D; assay type: biochemical; details: read-out: IC50* KRAS G13D FRET data
In short: as §1

Sequence of KRAS G12D (P01116-2 other isoform, or with tags, fused parts or gaps G12D): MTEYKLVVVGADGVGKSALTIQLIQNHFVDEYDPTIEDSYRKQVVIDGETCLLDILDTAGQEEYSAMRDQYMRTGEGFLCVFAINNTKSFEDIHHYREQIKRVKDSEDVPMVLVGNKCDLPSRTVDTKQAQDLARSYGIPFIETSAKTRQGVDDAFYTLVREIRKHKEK
Sequence of KRAS G12D (P62937 whole entry): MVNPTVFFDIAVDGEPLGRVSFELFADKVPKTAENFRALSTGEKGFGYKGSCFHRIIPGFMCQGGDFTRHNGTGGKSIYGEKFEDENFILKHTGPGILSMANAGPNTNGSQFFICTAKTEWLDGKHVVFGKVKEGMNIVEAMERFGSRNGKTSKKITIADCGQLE
Sequence of KRAS G13D (P01116-2 other isoform, or with tags, fused parts or gaps G13D): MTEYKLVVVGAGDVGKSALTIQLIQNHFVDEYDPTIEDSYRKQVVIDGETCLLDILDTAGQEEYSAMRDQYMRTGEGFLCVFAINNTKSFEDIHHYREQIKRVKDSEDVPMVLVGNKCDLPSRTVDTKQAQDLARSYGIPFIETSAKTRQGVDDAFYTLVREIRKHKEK
Sequence of KRAS G13D (P62937 whole entry): as the sequence (P62937 whole entry) above
Sequence of K-Ras G12C (P01116-2 other isoform, or with tags, fused parts or gaps G12C): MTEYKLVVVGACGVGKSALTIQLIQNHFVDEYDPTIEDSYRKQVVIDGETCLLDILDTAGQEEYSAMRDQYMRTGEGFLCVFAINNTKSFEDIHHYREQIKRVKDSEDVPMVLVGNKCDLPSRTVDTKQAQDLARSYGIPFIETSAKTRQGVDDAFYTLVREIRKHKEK
Sequence of K-Ras G12C (P62937 whole entry): as the sequence (P62937 whole entry) above
Sequence of NRAS G12C (P01111 whole entry G12C): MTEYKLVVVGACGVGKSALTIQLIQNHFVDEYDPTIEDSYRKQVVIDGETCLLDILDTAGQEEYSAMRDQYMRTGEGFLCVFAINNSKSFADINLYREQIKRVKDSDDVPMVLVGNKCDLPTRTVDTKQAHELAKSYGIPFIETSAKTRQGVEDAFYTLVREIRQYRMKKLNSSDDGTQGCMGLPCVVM
Sequence of NRAS G12C (P62937 whole entry): as the sequence (P62937 whole entry) above
Sequence of NRAS WT (P01111 whole entry): as the sequence (P01111 whole entry G12C) above, with C12G counted along it
Sequence of NRAS WT (P62937 whole entry): as the sequence (P62937 whole entry) above
Sequence of KRAS G12V (P01116-2 other isoform, or with tags, fused parts or gaps G12V): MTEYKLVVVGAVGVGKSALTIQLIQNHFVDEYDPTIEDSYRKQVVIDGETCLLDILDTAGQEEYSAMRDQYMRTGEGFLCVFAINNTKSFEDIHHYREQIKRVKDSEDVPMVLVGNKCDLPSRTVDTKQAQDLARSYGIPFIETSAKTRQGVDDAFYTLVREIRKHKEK
Sequence of KRAS G12V (P62937 whole entry): as the sequence (P62937 whole entry) above

SMILES	IC50 [1]	IC50 [2]	IC50 [3]	IC50 [4]	EC50 [5]	IC50 [6]	IC50 [7]
CO[C@@H](C)c1ncccc1-c1c2c3cc(ccc3n1CC(F)(F)F)-c1nc(co1)C[C@H](NC(=O)[C@@H](COC1CN(C(=O)C#CC(C)(C)N(C)C)C1)C(C)C)C(=O)N1CCC[C@H](N1)C(=O)OCC(C)(C)C2 (atropisomer, axis not shown) [Example A674]	10 to 100 nM	> 10000 nM	10 to 100 nM	> 10000 nM	< 5000 nM	> 10000 nM	> 10000 nM
C=CC(=O)N1CC[C@@]2(COCCN2C(=O)N(C)[C@H](C(=O)N[C@H]2Cc3nc(cs3)-c3ccc4c(c3)c(c(-c3cccnc3[C@H](C)OC)n4CC)CC(C)(C)COC(=O)[C@@H]3CCCN(N3)C2=O)C(C)C)C1 (atropisomer, axis not shown) [Example A677]	100 to 1000 nM	1000 to 10000 nM	100 to 1000 nM	100 to 1000 nM	< 5000 nM	1000 to 10000 nM	1000 to 10000 nM
C=CC(=O)N1CCC2(CC1)CCN2C(=O)N(C)[C@H](C(=O)N[C@H]1Cc2nc(cs2)-c2ccc3c(c2)c(c(-c2cccnc2[C@H](C)OC)n3CC)CC(C)(C)COC(=O)[C@@H]2CCCN(N2)C1=O)C(C)C (atropisomer, axis not shown) [Example A678]	10 to 100 nM	100 to 1000 nM	10 to 100 nM	100 to 1000 nM	< 5000 nM	100 to 1000 nM	100 to 1000 nM
CCn1c(-c2cccnc2[C@H](C)OC)c2c3cc(ccc31)-c1csc(n1)C[C@H](NC(=O)[C@H](C(C)C)N(C)C(=O)N1CCC3(CC1)CN(C(=O)/C=C/C(F)F)C3)C(=O)N1CCC[C@H](N1)C(=O)OCC(C)(C)C2 (atropisomer, axis not shown) [Example A683]	10 to 100 nM	100 to 1000 nM	10 to 100 nM	100 to 1000 nM	< 5000 nM	100 to 1000 nM	100 to 1000 nM
C=CC(=O)N1CC[C@H](C(=O)N(C)[C@H](C(=O)N[C@H]2Cc3cccc(c3)-c3ccc4c(c3)c(c(-c3cccnc3[C@H](C)OC)n4CC)CC(C)(C)COC(=O)[C@@H]3CCCN(N3)C2=O)C(C)(C)F)C1 (atropisomer, axis not shown) [Example A693]	100 to 1000 nM	> 10000 nM	100 to 1000 nM	1000 to 10000 nM	< 5000 nM	1000 to 10000 nM	1000 to 10000 nM
C=CC(=O)N1CCC2(CCN(C(=O)N(C)[C@H](C(=O)N[C@H]3Cc4nc(cs4)-c4ccc5c(c4)c(c(-c4cccnc4[C@H](C)OC)n5CC)CC(C)(C)COC(=O)[C@@H]4CCCN(N4)C3=O)C(C)C)CC2)C1 (atropisomer, axis not shown) [Example A698]	10 to 100 nM	100 to 1000 nM	10 to 100 nM	100 to 1000 nM	< 5000 nM	100 to 1000 nM	100 to 1000 nM
CCn1c(-c2cccnc2[C@H](C)OC)c2c3cc(ccc31)-c1csc(n1)C[C@H](NC(=O)[C@H](C(C)C)N(C)C(=O)N1CCN(C(=O)/C=C/CN(C)C)C3(CC3)C1)C(=O)N1CCC[C@H](N1)C(=O)OCC(C)(C)C2 (atropisomer, axis not shown) [Example A701]	10 to 100 nM	100 to 1000 nM	10 to 100 nM	100 to 1000 nM	< 5000 nM	100 to 1000 nM	100 to 1000 nM
C=CC(=O)N1CCC2(CC1)CN(C(=O)N(C)[C@H](C(=O)N[C@H]1Cc3nc(cs3)-c3ccc4c(c3)c(c(-c3cccnc3[C@H](C)OC)n4CC)CC(C)(C)COC(=O)[C@@H]3CCCN(N3)C1=O)C(C)C)C2 (atropisomer, axis not shown) [Example A702]	100 to 1000 nM	1000 to 10000 nM	100 to 1000 nM	100 to 1000 nM	< 5000 nM	100 to 1000 nM	1000 to 10000 nM
C=CC(=O)N(C)[C@H]1C[C@@H](N(C)C(=O)N(C)[C@H](C(=O)N[C@H]2Cc3nc(cs3)-c3ccc4c(c3)c(c(-c3cccnc3[C@H](C)OC)n4CC)CC(C)(C)COC(=O)[C@@H]3CCCN(N3)C2=O)C(C)C)C1 (atropisomer, axis not shown) [Example A704]	10 to 100 nM	100 to 1000 nM	10 to 100 nM	10 to 100 nM	< 5000 nM	100 to 1000 nM	100 to 1000 nM
C=CC(=O)N(C)[C@H]1C[C@H](N(C)C(=O)N(C)[C@H](C(=O)N[C@H]2Cc3nc(cs3)-c3ccc4c(c3)c(c(-c3cccnc3[C@H](C)OC)n4CC)CC(C)(C)COC(=O)[C@@H]3CCCN(N3)C2=O)C(C)C)C1 (atropisomer, axis not shown) [Example A712]	10 to 100 nM	100 to 1000 nM	10 to 100 nM	10 to 100 nM	< 5000 nM	100 to 1000 nM	100 to 1000 nM
C=CC(=O)N1CCO[C@@H]2CN(C(=O)N(C)[C@H](C(=O)N[C@H]3Cc4nc(cs4)-c4ccc5c(c4)c(c(-c4cccnc4[C@H](C)OC)n5CC)CC(C)(C)COC(=O)[C@@H]4CCCN(N4)C3=O)C(C)C)C[C@@H]21 (atropisomer, axis not shown) [Example A714]	100 to 1000 nM	1000 to 10000 nM	100 to 1000 nM	100 to 1000 nM	< 5000 nM	100 to 1000 nM	1000 to 10000 nM
CCn1c(-c2cccnc2[C@H](C)OC)c2c3cc(ccc31)N1CCC[C@@H](C[C@H](NC(=O)[C@@H](COC3CN(C(=O)C#CC(C)(C)N(C)C)C3)C(C)C)C(=O)N3CCC[C@H](N3)C(=O)OCC(C)(C)C2)C1 (atropisomer, axis not shown) [Example A715, (2R)-2-(((1-(4-(dimethylamino)-4-methylpent-2-ynoyl)azetidin-3-yl)oxy)methyl)-N-((2^3S,6^3S,4S)-1^1-ethyl-1^2-(2-((S)-1-methoxyethyl)pyridin-3-yl)-10,10-dimethyl-5,7-dioxo-6^1,6^2,6^3,6^4,6^5,6^6-hexahydro-1^1H-8-oxa-1(5,3)-indola-6(1,3)-pyridazina-2(1,3)-piperidinacycloundecaphane-4-yl)-3-methylbutanamide]	10 to 100 nM	> 10000 nM	10 to 100 nM	> 10000 nM	< 5000 nM	> 10000 nM	> 10000 nM
C=CC(=O)N1CCN(C(=O)N(C)[C@H](C(=O)N[C@H]2Cc3nc(cs3)-c3ccc4c(c3)c(c(-c3cccnc3[C@H](C)OC)n4CC)CC(C)(C)COC(=O)[C@@H]3CCCN(N3)C2=O)C(C)C)[C@@H]2CC[C@@H]21 (atropisomer, axis not shown) [Example A718]	100 to 1000 nM	1000 to 10000 nM	100 to 1000 nM	100 to 1000 nM	< 5000 nM	100 to 1000 nM	100 to 1000 nM
C=CC(=O)N1CC[C@]2(CCN(C(=O)N(C)[C@H](C(=O)N[C@H]3Cc4nc(cs4)-c4ccc5c(c4)c(c(-c4cccnc4[C@H](C)OC)n5CC)CC(C)(C)COC(=O)[C@@H]4CCCN(N4)C3=O)C(C)C)C2)C1 (atropisomer, axis not shown) [Example A719]	10 to 100 nM	100 to 1000 nM	10 to 100 nM	10 to 100 nM	< 5000 nM	100 to 1000 nM	100 to 1000 nM
C=CC(=O)N1CC(OC[C@H](C(=O)N[C@H]2Cc3cc(F)cc(c3)-c3ccc4c(c3)c(c(-c3cccnc3[C@H](C)OC)n4CC(F)(F)F)CC(C)(C)COC(=O)[C@@H]3CCCN(N3)C2=O)C(C)C)C1 (atropisomer, axis not shown) [Example A725]	100 to 1000 nM	> 10000 nM	100 to 1000 nM	1000 to 10000 nM	< 5000 nM	1000 to 10000 nM	1000 to 10000 nM
C=CC(=O)N1CC[C@H](N(C)C(=O)N(C)[C@H](C(=O)N[C@H]2Cc3nc(cs3)-c3ccc4c(c3)c(c(-c3cccnc3[C@H](C)OC)n4CC)CC(C)(C)COC(=O)[C@@H]3CCCN(N3)C2=O)C(C)C)C1 (atropisomer, axis not shown) [Example A728]	100 to 1000 nM	1000 to 10000 nM	100 to 1000 nM	100 to 1000 nM	< 5000 nM	100 to 1000 nM	1000 to 10000 nM
C=CC(=O)N1CCN(C(=O)N(C)[C@H](C(=O)N[C@H]2Cc3nc(cs3)-c3ccc4c(c3)c(c(-c3cccnc3[C@H](C)OC)n4CC)CC(C)(C)COC(=O)[C@@H]3CCCN(N3)C2=O)C(C)C)[C@H]2CC[C@H]21 (atropisomer, axis not shown) [Example A734]	10 to 100 nM	100 to 1000 nM	10 to 100 nM	10 to 100 nM	< 5000 nM	10 to 100 nM	100 to 1000 nM
